In patent US20100040621A1, “Novel polpeptide and use thereof” (TAKEDA PHARMACEUTICAL COMPANY LIMITED, priority 2005, published 2010):
No end group written: not given here.

Legend:
AVP secretion = AVP secretion in vivo after ICV administration (plasma AVP by RIA); details: rat; for AT-II induced AVP release: ICV preadministration, AT-II (1 nmol/10 μl) ICV 5 minutes after, plasma AVP; for AVP release induced by high salt administration: ICV, hypertonic saline (850 mM NaCl/10 μl) ICV 5 minutes after, plasma AVP 15 minutes after injection
Experimental: NERP-1, NERP-1-Gly, NERP-2 or NERP-2-Gly was ICV-administered to rats, followed by ICV administration of hypertonic saline (850 mM NaCl/10 μl) or angiotensin II (AT-II) (1 nmol/10 μl) 5 minutes after.
(§1) Blood samples were taken 15 minutes after the injection of NERPs. Plasma AVP was measured using an RIA kit (manufactured by Mitsubishi). Six pieces of PVN and SON were taken from the rat hypothalamus. Each nucleus was preincubated for an hour at 37° C. in medium 199 (25 mM HEPES buffer, pH 7.4, 2.5% fetal calf serum, 2.5% bovine serum and 1% penicillin-streptomycin) equilibrated under 95% O2 (n=4 wells/group). These nuclei were sequentially stimulated 3 times each for 5 minutes, using one of NERP-1 (10^−6 M), NERP-1 (10^−6 M)+AT-II (10^−6 M) and AT-II (10^−6 M). Stimulation periods were separated by 5-minute recovery periods. Similarly, these nuclei were stimulated using one of NERP-2 (10^−6 M), NERP-2 (10^−6 M)+AT-II (10^−6 M), NERP-1-Gly (10^−6 M) and NERP-2-Gly (10^−6 M). After they were thus stimulated, KCl of 6×10^−2 M was added to confirm depolarization-induced secretion. The two pieces from rat posterior pituitary were stimulated by NERPs and AT-II under the same conditions as described above. Aliquots of the medium were provided for RIA to measure AVP. The experiment was replicated 5 times.

PVN and SON = assay: AVP secretion in vitro, static incubation of PVN and SON; assay type: cell-based; details: rat nuclei in vitro; for basal AVP secretion, static incubation of PVN and SON: peptide 10^−6 M; for AT-II-induced AVP secretion, static incubation of PVN and SON: peptide 10^−6 M + AT-II 10^−6 M
Experimental: as §1

posterior pituitary = assay: AVP secretion in vitro, static incubation of posterior pituitary; assay type: cell-based; details: rat posterior pituitary in vitro, same conditions (10^−6 M)
Experimental: as §1

SON neurons = assay type: cell-based, rat; details: for GABAergic IPSC in the SON neurons: holding potential −20 mV
free-feeding rats = assay: Feeding experiments in rats after ICV injection; assay type: in vivo, rat
Experimental: (§2) To assess feeding, NERP-1, NERP-2 or NERP-2-Gly (0.1-5 nmol/10 μl) was ICV-injected to rats (n=15 per group) at 09:30. Anti-orexin A IgG (0.25 μg/10 μl, Santa Cruz) and anti-orexin B IgG (0.25 μg/10 μl, Santa Cruz) or anti-MCH IgG (0.5 μg/10 μl, Phoenix) was ICV-injected at 09:00 to rats (n=12 per group). In all cases, IgG was injected […] before the NERP-2 administration. Food intake was monitored for an hour. In mouse experiments, NERP-2 (1 nmol/2 μl saline) or MCH (1 nmol/2 μl saline) was ICV-injected to orexin knockout mice (Cell, 92, 573-585 (1998)) and wild-type littermates (n=5 per group, 4 month-old male), then one-hour food intake was measured. Orexin knockout mice were prepared by targeted mutation in ES cells (Cell, 92, 573-585 (1998)).

[1] = system: orexin knockout mice and wild-type littermates; assay: One-hour food intake in orexin knockout mice and wild-type littermates after ICV injection; assay type: in vivo, mouse; details: ICV 1 nmol/2 μl saline
Experimental: as §2

[2] = system: orexin knockout mice and wild-type mice; assay: Locomotor stimulating activity in mice after ICV administration; assay type: in vivo, mouse; details: ICV 5 nmol/2 μl saline, counts summed 30 to 120 minutes after administration
Experimental: Movement of mice given an ICV administration of NERP-2 (5 nmol/2 μl saline) or vehicle was measured in sound- and light-proof cages equipped with an infrared detector (Muromachi Co. Ltd., Tokyo, Japan) as previously described according to the method described in Endocrinology, 144, 4729-4733 (2003). Locomotor activity counts were measured every 15 minutes and summed for the period of 30 minutes to 120 minutes after the administration.

| Substance | AT-II induced AVP release (AVP secretion) | AVP release induced by high salt administration (AVP secretion) | basal AVP secretion, static incubation of PVN and SON (PVN and SON) | AT-II-induced AVP secretion, static incubation of PVN and SON (PVN and SON) | AVP secretion from the posterior pituitary (posterior pituitary) | IPSCs induced by NERP-1 on application of hemoglobin (Hb) (SON neurons; Hb 10^−6 M, NO scavenger, added 5 minutes after NERP-1) | presynaptic GABAergic currents induced by NERP-1 in presence of tetrodotoxin (SON neurons; TTX 10^−6 M, Na+ channel blocker, added 5 minutes after NERP-1) | amplitude of IPSC (SON neurons; rat SON slice, patch-clamp) | frequency of IPSC (SON neurons; rat SON slice, patch-clamp) | GABAergic IPSC in the SON neurons (SON neurons; rat slice, patch-clamp) | EPSC in the SON neurons (SON neurons; rat slice, patch-clamp, holding potential −70 mV) | food intake during the light phase (free-feeding rats; free-feeding rats, ICV 0.1-5 nmol/10 μl, one-hour intake) | lowest effective dose for increased food intake (free-feeding rats; free-feeding rats, ICV, light phase) | behavior compared to the control group (free-feeding rats; rats receiving ICV injection) | duration of orexigenic effect after the ICV injection (free-feeding rats; rats, ICV) | food intake in orexin knockout mice [1] | food intake in wild-type control mice [1] | total locomotor activity in the orexin knockout mice [2] | total locomotor activity in the wild-type mice [2] |
| --- | --- | --- | --- | --- | --- | --- | --- | --- | --- | --- | --- | --- | --- | --- | --- | --- | --- | --- | --- |
| NERP-1: VGF-derived peptide; human, rat and mouse sequences are SEQ ID NO: 4, 5 and 6; rat form an amidated 25-amino acid peptide (RPESALLGGSEAGERLLQQGLAQVEA; Neuroendocrine regulatory peptide-1; UniProt O15240 281-306, looked up) [VGF-derived peptide; rat form an amidated 25-amino acid peptide] | suppressed | dose-dependently suppressed | suppressed | suppressed | suppressed | not affected | remained unchanged | did not increase | increased | increased | did not increase |  |  |  |  |  |  |  |  |
| NERP-2: VGF-derived peptide; human, rat and mouse sequences are SEQ ID NO: 7, 8 and 9; rat form an amidated 38-amino acid peptide (QAEATRQAAAQEERLADLASDLLLQYLLQGGARQRGLG; also: rat form amidated, species of this chain not given here; UniProt O15240 310-347, looked up) [VGF-derived peptide; rat form an amidated 38-amino acid peptide] | inhibited | inhibited | suppressed | suppressed |  |  |  |  |  | increased |  | dose-dependently increased | 0.1 nmol | remained alert and showed no unusual behavior | did not last longer than an hour | did not stimulate | stimulated | did not stimulate | stimulated |
